Reference: patent US10947252B2, “Inhibitors of KEAP1-Nrf2 protein-protein interaction” (Janssen Pharmaceutica NV, priority 2018, dated 2021)

These compounds were tested on Glo-Response ARE-luc2P HEK293 cell line (assay: ARE luciferase reporter cell-based assay). Conditions: 24 hours, average of results obtained.
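Also: luciferase signal tracks Nrf2 activation of the ARE once compounds disrupt KEAP1-Nrf2 binding, read with One-Glo reagent, DMSO serving as low control.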

For `Cc1ccc(C(c2ccn3c(C(F)(F)F)nnc3c2C)C(C)C(=O)O)cc1CN1C[C@@H]2CCCCN2c2ncccc2S1(=O)=O` (stereo in doubt) [Example 129, 3-(3-(((*S)-5,5-Dioxido-7,7a,8,9,10,11-hexahydro-6H-dipyrido[2,1-d:2′,3′-f][1,2,5]thiadiazepin-6-yl)methyl)-4-methylphenyl)-2-methyl-3-(8-methyl-3-(trifluoromethyl)-[1,2,4]triazolo[4,3-a]pyridine-7-yl)propanoic Acid], the EC50 was 6.8 nM.

Same assay, conditions: Homo sapiens, HEK293, 24 h, average of results obtained

Compared with `Cc1ccc([C@@H](c2ccn3c(C(F)F)nnc3c2C)C(C)(C)C(=O)O)cc1CN1CC2(CC2)Oc2ncccc2S1(=O)=O` (single isomer, unassigned) [Example 567, (*S)-3-(3-(Difluoromethyl)-8-methyl-[1,2,4]triazolo[4,3-a]pyridin-7-yl)-3-(3-((1′,1′-dioxidospiro[cyclopropane-1,4′-pyrido[2,3-b][1,4,5]oxathiazepin]-2′(3′H)-yl)methyl)-4-methylphenyl)-2,2-dimethylpropanoic Acid], `Cc1ccc([C@H](c2ccn3c(C(F)F)nnc3c2C)C(C)(C)C(=O)O)cc1CN1CC2(CC2)Oc2ncccc2S1(=O)=O` (single isomer, unassigned) [Example 568, (*R)-3-(3-(Difluoromethyl)-8-methyl-[1,2,4]triazolo[4,3-a]pyridin-7-yl)-3-(3-((1′,1′-dioxidospiro[cyclopropane-1,4′-pyrido[2,3-b][1,4,5]oxathiazepin]-2′(3′H)-yl)methyl)-4-methylphenyl)-2,2-dimethylpropanoic Acid] is 74-fold higher in EC50: 2.6 nM for the first, 192 nM for the second.

Going from `Cc1cnc([C@H](c2ccn3c(C(F)F)nnc3c2C)C(C)(C)C(=O)O)cc1CN1CC2(CC2)Oc2nc(OCCN3CCCCC3)c(C)cc2S1(=O)=O` (single isomer, unassigned) [Example 637, (*R)-3-(3-(Difluoromethyl)-8-methyl-[1,2,4]triazolo[4,3-a]pyridin-7-yl)-2,2-dimethyl-3-(5-methyl-4-((8′-methyl-1′,1′-dioxido-7′-(2-(piperidin-1-yl)ethoxy)spiro[cyclopropane-1,4′-pyrido[2,3-b][1,4,5]oxathiazepin]-2′(3′H)-yl)methyl)pyridin-2-yl)propanoic Acid] to `Cc1cnc([C@H](c2ccn3c(C(F)F)nnc3c2C)C(C)(C)C(=O)O)cc1CN1CC2(CCOCC2)Oc2nc(OCCN3CCCCC3)c(C)cc2S1(=O)=O` (single isomer, unassigned) [Example 641, (*R)-3-(3-(Difluoromethyl)-8-methyl-[1,2,4]triazolo[4,3-a]pyridin-7-yl)-2,2-dimethyl-3-(5-methyl-4-((8′-methyl-1′,1′-dioxido-7′-(2-(piperidin-1-yl)ethoxy)-2,3,5,6-tetrahydrospiro[pyran-4,4′-pyrido[2,3-b][1,4,5]oxathiazepin]-2′(3′H)-yl)methyl)pyridin-2-yl)propanoic Acid], the EC50 rises from 615 nM to 2290 nM (3.7-fold). The first is the more potent here.

First: Cc1cnc2c(c1)S(=O)(=O)N(Cc1cc([C@@H](c3ccc4c(nnn4C4CC4)c3C)C(C)(C)C(=O)O)ccc1C)CC1(CNC1)O2 (single isomer, unassigned) [Example 646, (*S)-3-(1-Cyclopropyl-4-methyl-1H-benzo[d][1,2,3]triazol-5-yl)-2,2-dimethyl-3-(4-methyl-3-((8′-methyl-1′,1′-dioxidospiro[azetidine-3,4′-pyrido[2,3-b][1,4,5]oxathiazepin]-2′(3′H)-yl)methyl)phenyl)propanoic Acid]
Second: Cc1ccc([C@@H](c2ccc3c(nnn3C3CC3)c2C)C(C)(C)C(=O)O)cc1CN1CC2(CCNCC2)Oc2ncccc2S1(=O)=O (single isomer, unassigned) [Example 648, (*S)-3-(1-Cyclopropyl-4-methyl-1H-benzo[d][1,2,3]triazol-5-yl)-3-(3-((1′,1′-dioxidospiro[piperidine-4,4′-pyrido[2,3-b][1,4,5]oxathiazepin]-2′(3′H)-yl)methyl)-4-methylphenyl)-2,2-dimethylpropanoic Acid]
The EC50 of the first is 20-fold lower: 66.7 nM for the first, 1350 nM for the second. The first is the more potent here.

Compared with `Cc1cnc2c(c1)S(=O)(=O)N(Cc1cc([C@@H](CC(=O)O)c3ccn4c(C(F)(F)F)nnc4c3C)ccc1Cl)CC1CCCCN21` (stereo in doubt) [Example 90, (*R)-3-(4-Chloro-3-(((*S)-3-methyl-5,5-dioxido-7,7a,8,9,10,11-hexahydro-6H-dipyrido[2,1-d:2′,3′-f][1,2,5]thiadiazepin-6-yl)methyl)phenyl)-3-(8-methyl-3-(trifluoromethyl)-[1,2,4]triazolo[4,3-a]pyridine-7-yl)propanoic Acid], `Cc1cnc2c(c1)S(=O)(=O)N(Cc1cc([C@H](CC(=O)O)c3ccn4c(C(F)F)nnc4c3C)ccc1C)C[C@@H]1CCCCN21` (stereo in doubt) [Example 500, (*S)-3-(3-(Difluoromethyl)-8-methyl-[1,2,4]triazolo[4,3-a]pyridin-7-yl)-3-(4-methyl-3-(((*S)-3-methyl-5,5-dioxido-7,7a,8,9,10,11-hexahydro-6H-dipyrido[2,1-d:2′,3′-f][1,2,5]thiadiazepin-6-yl)methyl)phenyl)propanoic Acid] is 1.6-fold higher in EC50: 4.2 nM for the first, 6.55 nM for the second. The first is the more potent here.

Going from `Cc1cnc2c(c1)S(=O)(=O)N(Cc1cc([C@@H](CC(=O)O)c3ccn4c(C(F)F)nnc4c3C)ccc1C)C[C@@H]1CCCCN21` (stereo in doubt) [Example 501, (*R)-3-(3-(Difluoromethyl)-8-methyl-[1,2,4]triazolo[4,3-a]pyridin-7-yl)-3-(4-methyl-3-(((*S)-3-methyl-5,5-dioxido-7,7a,8,9,10,11-hexahydro-6H-dipyrido[2,1-d:2′,3′-f][1,2,5]thiadiazepin-6-yl)methyl)phenyl)propanoic Acid] to `Cc1cnc2c(c1)S(=O)(=O)N(Cc1cc(C(CC(=O)O)c3ccn4c(C(F)F)nnc4c3C)ccc1C)C[C@H]1CCCCN21` (stereo in doubt) [Example 502, 3-(3-(Difluoromethyl)-8-methyl-[1,2,4]triazolo[4,3-a]pyridin-7-yl)-3-(4-methyl-3-(((*R)-3-methyl-5,5-dioxido-7,7a,8,9,10,11-hexahydro-6H-dipyrido[2,1-d:2′,3′-f][1,2,5]thiadiazepin-6-yl)methyl)phenyl)propanoic Acid], the EC50 falls from 34.5 nM to 3.92 nM (8.8-fold).

Compared with `Cc1cnc2c(c1)S(=O)(=O)N(Cc1cc([C@H](CC(=O)O)c3ccn4c(C(F)F)nnc4c3C)ccc1C)C[C@H]1CCCCN21` (stereo in doubt) [Example 503, (*S)-3-(3-(Difluoromethyl)-8-methyl-[1,2,4]triazolo[4,3-a]pyridin-7-yl)-3-(4-methyl-3-(((*R)-3-methyl-5,5-dioxido-7,7a,8,9,10,11-hexahydro-6H-dipyrido[2,1-d:2′,3′-f][1,2,5]thiadiazepin-6-yl)methyl)phenyl)propanoic Acid], `Cc1cnc2c(c1)S(=O)(=O)N(Cc1cc([C@@H](CC(=O)O)c3ccn4c(C(F)F)nnc4c3C)ccc1C)C[C@H]1CCCCN21` (stereo in doubt) [Example 504, (*R)-3-(3-(Difluoromethyl)-8-methyl-[1,2,4]triazolo[4,3-a]pyridin-7-yl)-3-(4-methyl-3-(((*R)-3-methyl-5,5-dioxido-7,7a,8,9,10,11-hexahydro-6H-dipyrido[2,1-d:2′,3′-f][1,2,5]thiadiazepin-6-yl)methyl)phenyl)propanoic Acid] is 2.8-fold higher in EC50: 2.58 nM for the first, 7.22 nM for the second. The first is the more potent here.

Going from `CCn1nnc2c(C)c(C(c3ccc(C)c(CN4CC5(CCOCC5)Oc5ncccc5S4(=O)=O)c3)C(C)(C)C(=O)O)ccc21` (centres unmarked) [Example 14, 3-(3-((1′,1′-Dioxido-2,3,5,6-tetrahydrospiro[pyran-4,4′-pyrido[2,3-b][1,4,5]oxathiazepin]-2′(3′H)-yl)methyl)-4-methylphenyl)-3-(1-ethyl-4-methyl-1H-benzo[d][1,2,3]triazol-5-yl)-2,2-dimethylpropanoic Acid] to `Cc1ccc(C(c2ccn3c(C(F)(F)F)nnc3c2)C(C)(C)C(=O)O)cc1CN1CC2(CCOCC2)Oc2ncccc2S1(=O)=O` (centres unmarked) [Example 319, 3-(3-((1′,1′-Dioxido-2,3,5,6-tetrahydrospiro[pyran-4,4′-pyrido[2,3-b][1,4,5]oxathiazepin]-2′(3′H)-yl)methyl)-4-methylphenyl)-2,2-dimethyl-3-(3-(trifluoromethyl)-[1,2,4]triazolo[4,3-a]pyridin-7-yl)propanoic Acid], the EC50 rises from 0.7 nM to 44.5 nM (64-fold). The first is the more potent here.

First: Cc1cnc2c(c1)S(=O)(=O)N(Cc1cc(C(c3ccn4c(C(F)(F)F)nnc4c3C)C(C)(C)C(=O)O)ccc1C)CC1(CCOCC1)O2 (centres unmarked) [Example 17, 2,2-Dimethyl-3-(4-methyl-3-((8′-methyl-1′,1′-dioxido-2,3,5,6-tetrahydrospiro[pyran-4,4′-pyrido[2,3-b][1,4,5]oxathiazepin]-2′(3′H)-yl)methyl)phenyl)-3-(8-methyl-3-(trifluoromethyl)-[1,2,4]triazolo[4,3-a]pyridin-7-yl)propanoic Acid]
Second: Cc1cnc2c(c1)S(=O)(=O)N(Cc1cc(C(c3ccn4c(C(F)(F)F)nnc4c3C)C(C)(C)C(=O)O)ccc1C)CC1(CC1)O2 (centres unmarked) [Example 313, 2,2-Dimethyl-3-(4-methyl-3-((8′-methyl-1′,1′-dioxidospiro[cyclopropane-1,4′-pyrido[2,3-b][1,4,5]oxathiazepin]-2′(3′H)-yl)methyl)phenyl)-3-(8-methyl-3-(trifluoromethyl)-[1,2,4]triazolo[4,3-a]pyridin-7-yl)propanoic Acid]
The EC50 of the first is 3.3-fold higher: 3.6 nM for the first, 1.1 nM for the second.

Going from `Cc1c(C(CC(=O)O)c2ccc(Cl)c(CN3CC4(COC4)Oc4ccccc4S3(=O)=O)c2)ccn2c(C(F)(F)F)nnc12` (centres unmarked) [Example 95] to `Cc1ccc(C(c2ccn3c(C(F)(F)F)nnc3c2C)C(C)(C)C(=O)O)cc1CN1CC2(CC2)Oc2ncccc2S1(=O)=O` (centres unmarked) [Example 316, 3-(3-((1′,1′-Dioxidospiro[cyclopropane-1,4′-pyrido[2,3-b][1,4,5]oxathiazepin]-2′(3′H)-yl)methyl)-4-methylphenyl)-2,2-dimethyl-3-(8-methyl-3-(trifluoromethyl)-[1,2,4]triazolo[4,3-a]pyridin-7-yl)propanoic Acid], the EC50 falls from 1080 nM to 1.3 nM (830-fold).

`Cc1ccc(C(c2ccn3c(C(F)(F)F)nnc3c2C)C(C)(C)C(=O)O)cc1CN1CC2(CCOCC2)Oc2nc(NCCCO)ccc2S1(=O)=O` (centres unmarked) [Example 114] gave an EC50 of 145 nM.
